Read-outs that look alike come from different tables or passages of the source.
Tests used:
[1] = target: T1, rhinovirus 3C protease from HRV serotype-14 (Human rhinovirus 14, UniProt P03303); assay: Inhibition of rhinovirus 3C protease (FRET assay), serotype 14; type: biochemical; details: HRV serotype-14 3C protease; progress curves in enzyme start experiments; read-out: Protease Inhibition kobs/[I]
T1 construct: Recombinant rhinovirus 3C proteases; made in house
Protocol: Stock solutions (50 mM, in DMSO) of various compounds were prepared; dilutions were in the same solvent. Recombinant rhinovirus 3C proteases (see Birch et al., “Purification of recombinant human rhinovirus 14 3C protease expressed in Escherichia coli,” Protein Expr. Pur. 1995, 6(5), 609-618) from serotypes 14, 16, and 2 were prepared by the following standard chromatographic procedures: (1) ion exchange using Q Sepharose Fast Flow from Pharmacia; (2) affinity chromatography using Affi-Gel Blue from Biorad; and (3) sizing using Sephadex G-100 from Pharmacia. Each assay sample contained 2% DMSO, 50 mM tris pH 7.6, 1 mM EDTA, a test compound at the indicated concentration, approximately 1 μM substrate, and 50-100 nM protease. The kobs/I values were obtained from reactions initiated by addition of enzyme rather than substrate. RVP activity was measured in the fluorescence resonance energy transfer assay. The substrate was (N-terminal) DABCYL-(Gly-Arg-Ala-Val-Phe-Gln-Gly-Pro-Val-Gly)-EDANS. In the uncleaved peptide, the EDANS fluorescence was quenched by the proximal DABCYL moiety. When the peptide was cleaved, the quenching was relieved, and activity was measured as an increase in fluorescence signal. In Table 1, all data are for rhinovirus 3C protease from HRV serotype-14 (produced from the infectious cDNA clone constructed by Dr. Robert Rueckert, Institute for Molecular Virology, University of Wisconsin, Madison, Wis.). […] The data in the column designated kobs/[I] were measured from progress curves in enzyme start experiments.

HRV-14 = assay: Antirhinoviral H1-HeLa cell culture assay, HRV-14; type: cell-based, human rhinovirus; details: Rhinovirus B, HRV14, H1-HeLa, HRV serotype-14, H1-HeLa cells
Protocol: In this cell protection assay, the ability of compounds to protect cells against HRV infection was measured by the XTT dye reduction method, which is described in Weislow et al., J. Natl. Cancer Inst. 1989, vol. 81, 577-586.
H1-HeLa cells were infected with HRV-14 at a multiplicity of infection (m.o.i.) of 0.13 (virus particles/cell) or mock-infected with medium only. Infected or mock-infected cells were resuspended at 8×10^5 cells per mL, and incubated with appropriate concentrations of the compounds to be tested. Two days later, XTT/PMS was added to test plates and the amount of formazan produced was quantified spectrophotometrically at 450/650 nm. The EC50 value was calculated as the concentration of compound that increased the percentage of formazan production in compound-treated, virus-infected cells to 50% of that produced by compound-free, mock-infected cells. The 50% cytotoxic dose (CC50) was calculated as the concentration of compound that decreased the percentage of formazan produced in compound-treated, mock-infected cells to 50% of that produced by compound-free, mock-infected cells. The therapeutic index (TI) was calculated by dividing the CC50 value by the EC50 value.
All strains of human rhinovirus (HRV) for use in this assay were purchased from American Type Culture Collection (ATCC), except for HRV serotype-14 (produced from the infectious cDNA clone constructed by Dr. Robert Rueckert, Institute for Molecular Virology, University of Wisconsin, Madison, Wis.). HRV stocks were propagated and viral assays were performed in H1-HeLa cells (ATCC). Cells were grown in minimal essential medium with 10% fetal bovine serum, available from Life Technologies (Gaithersburg, Md.).
The compounds were tested against control compounds WIN 51711, WIN 52084, and WIN 54954 (obtained from Sterling-Winthrop Pharmaceuticals), Pirodavir (obtained from Janssen Pharmaceuticals), and Pleconaril (prepared according to the method described in Diana et al., J. Med. Chem 1995, vol. 38, 1355). Antiviral data obtained for the test compounds are shown in Tables 1 and 3, where all data are for HRV serotype-14 unless otherwise noted in parentheses.

[2] = Table 1, XTT dye reduction, read-out: Cell Protection EC50

T1 sequence (P03303 1538-1719): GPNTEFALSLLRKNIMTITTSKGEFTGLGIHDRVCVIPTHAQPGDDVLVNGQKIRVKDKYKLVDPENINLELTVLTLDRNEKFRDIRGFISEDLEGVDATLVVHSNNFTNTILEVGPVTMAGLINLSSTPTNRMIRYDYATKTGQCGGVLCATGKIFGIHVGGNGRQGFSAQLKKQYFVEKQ

| SMILES | kinact/KI [1] [M⁻¹ s⁻¹] | EC50 (HRV-14; [2]) [µM] | EC50 (HRV-14; Table 3, XTT, read-out: EC50) [µM] |
| --- | --- | --- | --- |
| CC(C)C[C@H](NC(=O)OCc1ccccc1)C(=O)N[C@@H](Cc1ccccc1)C(=O)N[C@H](/C=C/c1ccno1)CCC(N)=O [Comparison Compound #1, 5-(3′-(Cbz-L-Leu-L-Phe-L-Gln)-E-Propene)-isoxazole, reference compound] | 573 | > 320 | > 320 |
| CCOC(=O)/C=C/[C@H](CCC(N)=O)NC(=O)[C@H](Cc1ccc(C)cc1)NC(=O)[C@@H](NC(=O)c1cc(C)on1)C(C)(C)C [Compound A-3, Ethyl-3-((5′-Methylisoxazole-3′-carbonyl)-L-α-(t-Butyl-Gly)-L-(4-Me-Phe)-L-Gln)-E-Propenoate] | 310000 | 0.05 | 0.05 |
| CCOC(=O)/C=C/[C@H](CCC(N)=O)NC(=O)[C@H](Cc1ccc(F)cc1)NC(=O)[C@@H](NC(=O)c1cc(C)on1)C(C)(C)C [Compound A-4, Ethyl-3-((5′-Methylisoxazole-3′-carbonyl)-L-α-(t-Butyl-Gly)-L-(4-F-Phe)-L-Gln)-E-Provenoate] | 270000 | 0.1 | 0.1 |
| CCOC(=O)/C=C/[C@H](CCC(N)=O)NC(=O)[C@H](Cc1ccc(F)cc1)NC(=O)[C@@H](NC(=O)c1cc(C)on1)C(C)C [Compound A-6, Ethyl-3-[(5′-Methylisoxazole-3′-carbonyl)-L-Val-L-(4-F-Phe)-L-Gln]-E-Propenoate] | 248000 | 0.42 | 0.42 |
| CCOC(=O)/C=C/[C@H](C[C@@H]1CCCNC1=O)NC(=O)[C@H](Cc1ccc(F)cc1)NC(=O)[C@@H](NC(=O)c1cc(C)on1)C(C)C [Compound A-8, Ethyl-3-[(5′-Methylisoxazole-3′-carbonyl)-L-Val-L-(4-F-Phe)-L-((S)-Piper-Ala)}-E-Propenoate] | 900000 |  |  |
| CCOC(=O)/C=C/[C@H](CCC(N)=O)NC(=O)[C@H](Cc1ccc(F)cc1)N(C)C(=O)[C@H](Cc1c[nH]cn1)NC(=O)c1cc(C)on1 [Compound A-9, Ethyl-3-{(5′-Methylisoxazole-3′-carbonyl)-L-His-NCH3-L-(4-F-Phe)-L-Gln}-E-Propenoate] | 66000 | 1.8 | 1.8 |
| CCOC(=O)/C=C/[C@H](CCC(N)=O)NC(=O)[C@H](Cc1ccc(F)cc1)N(C)C(=O)[C@H](Cc1ccc2ccccc2c1)NC(=O)c1cc(C)on1 [Compound A-11, Ethyl-3-{(5′-Methylisoxazole-3′-carbonyl)-L-(2-Naphth)-NCH3-L-(4-F-Phe)-L-Gln}-E-Propenoate] | 108000 | 0.03 | 0.03 |
| CCOC(=O)/C=C/[C@H](CCC(N)=O)NC(=O)[C@H](Cc1ccc(F)cc1)N(C)C(=O)[C@H](CC(C)C)NC(=O)c1cc(C)on1 [Compound A-12, Ethyl-3-{(5′-Methylisoxazole-3′-carbonyl)-L-Leu-NCH3-L-(4-F-Phe)-L-Gln}-E-Propenoate] | 59300 | 0.4 | 0.4 |
| CCOC(=O)/C=C/[C@H](CCC(N)=O)NC(=O)[C@H](Cc1ccc(F)cc1)N(C)C(=O)[C@H](Cc1cccc2ccccc12)NC(=O)c1cc(C)on1 [Compound A-13, Ethyl-3-{(5′-Methylisoxazole-3′-carbonyl)-L-(1-Naphth)-NCH3-L-(4-F-Phe)-L-Gln}-E-Propenoate] | 95800 | 0.2 | 0.2 |
| CCOC(=O)/C=C/[C@H](CCC(N)=O)NC(=O)[C@H](Cc1ccccc1)NC(=O)[C@H](CC(C)C)NC(=O)c1cc(C)[nH]n1 [Compound A-22] | 2400 |  |  |
| CCOC(=O)/C=C/[C@H](CCC(N)=O)NC(=O)[C@H](Cc1ccccc1)NC(=O)[C@H](CC(C)C)NC(=O)c1cc(C)cs1 [Compound A-23] | 26000 |  |  |
| CCOC(=O)/C=C/[C@H](C[C@@H]1CCNC1=O)NC(=O)[C@H](Cc1ccccc1)NC(=O)[C@@H](NC(=O)OCc1ccccc1)C(C)C [Compound A-25, Ethyl-3-{Cbz-L-Val-L-Phe-L-((S)-Pyrrol-Ala)}-E-Propenoate] | 500000 | 0.03 | 0.03 |

Reference: US20060046966A1, “Antipicornaviral compounds and compositions, their pharmaceutical uses, and materials for their synthesis” (Agouron Pharmaceuticals, Inc., priority 1998, published 2006)
